Source: US20100197585A1, “USE OF A RGD-PEPTIDE AND/OR PARATHYROID HORMONE (1-34) AS ANTI-HIV AGENT” (priority 2007, published 2010)
Where no end group is shown, it is not given here.

Tests used:
[1] = tested on: HIV-1IIIB; experiment: HIV-1 antiviral assay (cytopathic effect) in CEM-SS cells; details: for antiviral activity of positive control compounds (HIV-1): CEM-SS cells; for reduction of the cytopathic effect (CPE) in HIV-1 infected CEM-SS cells: 10 micrograms per ml, HIV-1IIIB, 6 days post-infection, MTS
[2] = tested on: HCMV strain AD169; experiment: HCMV plaque formation assay in MRC-5 cells; details: for inhibition of HCMV plaque formation as compared to the virus control: 10 micrograms per ml, 7-10 days
[3] = tested on: Human A549 cells; experiment: Apoptosis prevention assay (C2 ceramide, Annexin-5); format: cell-based; details: 10 micrograms per ml, 30 min pretreatment
[4] = tested on: murine spleen cells; experiment: Th1/Th2 cytokine profiling assay; format: cell-based, Balb/c mice; details: 10 micrograms per ml; Ovalbumin restimulation; 72 hours
[5] = tested on: Streptococcus pneumoniae; experiment: Streptococcus pneumoniae assay; details: 10 micrograms per ml; 5x10^5 CFU/mL
[6] = tested on: hepatitis B virus (HBV) ayw strain; experiment: HBV experimental assay system (secreted HBV DNA, TaqMan PCR); format: cell-based; details: 10 micrograms per ml; HepG2-2.2.15; six days; HBV DNA by TaqMan PCR
Text: HepG2-2.2.15 is a stable cell line containing the hepatitis B virus (HBV) ayw strain genome (ATCC Cat. No. CRL-11997). Antiviral compounds blocking any late step of viral replication such as transcription, translation, pregenome encapsidation, reverse transcription, particle assembly and release can be identified and characterized using this cell line. In this assay, an active compound will reduce the production of secreted HBV from cells, measured by utilizing real time quantitative PCR (TaqMan) assay to directly and accurately measure HBV DNA copies.
HepG2-2.2.15 cells were plated in 96-well microtiter plates. After 16-24 hours the confluent monolayer of HepG2-2.2.15 cells was washed and the medium was replaced with complete medium containing test peptides—10 micrograms per ml—in duplicate. […] Six days following the initial administration of the peptides, the cell culture supernatants was collected, treated with pronase and DNAse and then used in a real-time quantitative TaqMan PCR assay. The PCR-amplified HBV DNA was detected in real-time by monitoring increases in fluorescence signals that result from the exonucleolytic degradation of a quenched fluorescence probe molecule that hybridizes to the amplified HBV DNA. […] Antiviral activity was calculated from the reduction in HBV DNA levels (% virus control). […]

[7] = tested on: HUVEC; experiment: Endothelial tube formation assay; format: cell-based, human; details: 10 micrograms per ml, 20 hours
[8] = tested on: Primary Human endothelial cells (HUVEC); experiment: Endothelial cell migration assay; format: cell-based; details: 10 micrograms per ml, 22 hours

Molecule	antiviral activity of positive control compounds (HIV-1) [1]	antiviral activity of positive control compound (HCMV) ([2]; positive control)	reduction of the ceramide-induced apoptosis on human lung cells [3]	reduction of the cytopathic effect (CPE) in HIV-1 infected CEM-SS cells [1]	change of the production of IL-5 in murine spleen cells [4]	decrease of the production of IFN-γ in murine spleen cells [4]	increase of the production of IL-2 in murine spleen cells [4]	increase of the production of IL-4 in murine spleen cells [4]	induction of the production of TNF-alpha in murine spleen cells [4]	inhibition of the growth of Streptococcus pneumoniae [5]	inhibition of HCMV plaque formation as compared to the virus control [2]	inhibition of HBV replication as compared to the virus control infection [6]	inhibition of the tube formation of human endothelial cells [7]	inhibition of the migration of human endothelial cells [8]
Cc1cn([C@H]2C[C@H](N=[N+]=[N-])[C@@H](CO)O2)c(=O)[nH]c1=O [AZT, zidovudine, reference compound]	expected levels of antiviral activity	–	–	–	–	–	–	–	–	–	–	–	–	–
Nc1nc(O)c2ncn(COC(CO)CO)c2n1 [Ganciclovir, reference compound]	–	expected levels of antiviral activity	–	–	–	–	–	–	–	–	–	–	–	–
CC[C@H](C)[C@H](NC(=O)[C@H](CCC(=O)O)NC(=O)[C@H](CO)NC(=O)[C@@H](NC(=O)[C@@H](N)CO)C(C)C)C(=O)N[C@@H](CCC(N)=O)C(=O)N[C@@H](CC(C)C)C(=O)N[C@@H](CCSC)C(=O)N[C@@H](Cc1cnc[nH]1)C(=O)N[C@@H](CC(N)=O)C(=O)N[C@@H](CC(C)C)C(=O)NCC(=O)N[C@@H](CCCCN)C(=O)N[C@@H](Cc1cnc[nH]1)C(=O)N[C@@H](CC(C)C)C(=O)N[C@@H](CC(N)=O)C(=O)N[C@@H](CO)C(=O)N[C@@H](CCSC)C(=O)N[C@@H](CCC(=O)O)C(=O)N[C@@H](CCCN=C(N)N)C(=O)N[C@H](C(=O)N[C@@H](CCC(=O)O)C(=O)N[C@@H](Cc1c[nH]c2ccccc12)C(=O)N[C@@H](CC(C)C)C(=O)N[C@@H](CCCN=C(N)N)C(=O)N[C@@H](CCCCN)C(=O)N[C@@H](CCCCN)C(=O)N[C@@H](CC(C)C)C(=O)N[C@@H](CCC(N)=O)C(=O)N[C@@H](CC(=O)O)C(=O)N[C@H](C(=O)N[C@@H](Cc1cnc[nH]1)C(=O)N[C@@H](CC(N)=O)C(=O)N[C@@H](Cc1ccccc1)C(=O)O)C(C)C)C(C)C [Peptide 2]	–	–	23.9%	18.1%	did not significantly change	31.4%	80.4%	35.2%	did not significantly change	no effect	did not inhibit	0%	28%	no effect
CC(C)(C)NC(=O)[C@@H]1CN(Cc2cccnc2)CCN1C[C@@H](O)C[C@@H](Cc1ccccc1)C(=O)N[C@H]1c2ccccc2C[C@H]1O [indinavir, reference compound]	expected levels of antiviral activity	–	–	–	–	–	–	–	–	–	–	–	–	–
Gly-Arg-Gly-Asp-Asn-Pro-OH (GRGDNP-OH) [Peptide 1]	–	–	did not reduce	100%	did not significantly change	did not significantly change	58.8%	55.6%	23.7%	100%	did not inhibit	36.4%	no effect	–
